Measurements reported in PMC5428663, “Identification of small molecule inhibitors of Interleukin-18” (Scientific Reports, 2017).

How the values were obtained:
[1] = system: hIL-18 induced IFN-γ production in human KG-1 cells; assay: IFN-γ bioassay (hIL-18 induced IFN-γ production in KG-1 cells); format: cell-based; conditions: for inhibition of hIL-18 activities (IFN-γ secretion): KG-1 cells, 1 uM inhibitor, increasing hIL-18 (Fig. 4)
[2] = target: T1, hIL-18:ectvIL-18BP complex (Homo sapiens, UniProt Q14116); assay: biochemical; format: binding, human; ectromelia virus; conditions: for IC50: 5% DMSO, read-out: IC50, inhibition of hIL-18:ectvIL-18BP complex formation
T1 construct: Mature human IL-18 was cloned into a modified pET vector containing a C-terminal 6x His tag; 6x His (C); made in house; host or cells: E. coli BL21 gold (DE3) with biotin ligase for hIL-18; E. coli BL21 (DE3) Rosetta-Gami 2 for MBP-ectvIL-18BP
T1 sequence (Q14116 37-193): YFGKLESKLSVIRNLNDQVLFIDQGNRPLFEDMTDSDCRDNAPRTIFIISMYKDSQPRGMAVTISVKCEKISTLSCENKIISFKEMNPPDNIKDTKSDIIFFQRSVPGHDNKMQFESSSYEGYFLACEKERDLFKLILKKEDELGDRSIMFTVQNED

Row | Structure (SMILES) | EC50 ([1]; Homo sapiens, KG-1 cells 1 × 10^6 cells ml^−1, constant hIL-18, 24 hr, read-out: EC50, inhibition of hIL-18 induced IFN-γ production) [nM] | inhibition of hIL-18 activities (IFN-γ secretion) [1] | Ki [2] [nM] | fold difference of calculated Ki (ELISA) vs predicted Autodock Ki [2] | IC50 [2] [nM]
1 | N#Cc1ccc(NC(=O)Nc2ccc(Oc3ccc(NC(=O)Nc4ccc(C#N)cc4)cc3)cc2)cc1 [NSC80734, 1-(4-cyanophenyl)-3-[4-[4-[(4-cyanophenyl)carbamoylamino]phenoxy]phenyl]urea] | ~250 | best inhibition | 1800 | approximately 4 fold | 52000
2 | O=C(Nc1cccc(-c2nc3ccccc3[nH]2)c1)c1ccc(C(=O)Nc2cccc(-c3nc4ccccc4[nH]3)c2)cc1 [NSC61610, 1-N,4-N-bis[3-(1H-benzimidazol-2-yl)phenyl]benzene-1,4-dicarboxamide] | – | small inhibitory effect | 200 | approximately 2 fold | 6000
3 | CCOC(=O)c1ccc(Nc2sc(C(=O)c3cccc([N+](=O)[O-])c3)c(N)c2C#N)cc1 [NSC201631, ethyl 4-[[4-amino-3-cyano-5-(3-nitrobenzoyl)thiophen-2-yl]amino]benzoate] | – | did not inhibit hIL-18 activities | 1600 | approximately 2 fold | 44000
